For the first assay, the target named is T1, EHMT1 (Homo sapiens, UniProt Q9H9B1).
T1 sequence (Q9H9B1 1-1298): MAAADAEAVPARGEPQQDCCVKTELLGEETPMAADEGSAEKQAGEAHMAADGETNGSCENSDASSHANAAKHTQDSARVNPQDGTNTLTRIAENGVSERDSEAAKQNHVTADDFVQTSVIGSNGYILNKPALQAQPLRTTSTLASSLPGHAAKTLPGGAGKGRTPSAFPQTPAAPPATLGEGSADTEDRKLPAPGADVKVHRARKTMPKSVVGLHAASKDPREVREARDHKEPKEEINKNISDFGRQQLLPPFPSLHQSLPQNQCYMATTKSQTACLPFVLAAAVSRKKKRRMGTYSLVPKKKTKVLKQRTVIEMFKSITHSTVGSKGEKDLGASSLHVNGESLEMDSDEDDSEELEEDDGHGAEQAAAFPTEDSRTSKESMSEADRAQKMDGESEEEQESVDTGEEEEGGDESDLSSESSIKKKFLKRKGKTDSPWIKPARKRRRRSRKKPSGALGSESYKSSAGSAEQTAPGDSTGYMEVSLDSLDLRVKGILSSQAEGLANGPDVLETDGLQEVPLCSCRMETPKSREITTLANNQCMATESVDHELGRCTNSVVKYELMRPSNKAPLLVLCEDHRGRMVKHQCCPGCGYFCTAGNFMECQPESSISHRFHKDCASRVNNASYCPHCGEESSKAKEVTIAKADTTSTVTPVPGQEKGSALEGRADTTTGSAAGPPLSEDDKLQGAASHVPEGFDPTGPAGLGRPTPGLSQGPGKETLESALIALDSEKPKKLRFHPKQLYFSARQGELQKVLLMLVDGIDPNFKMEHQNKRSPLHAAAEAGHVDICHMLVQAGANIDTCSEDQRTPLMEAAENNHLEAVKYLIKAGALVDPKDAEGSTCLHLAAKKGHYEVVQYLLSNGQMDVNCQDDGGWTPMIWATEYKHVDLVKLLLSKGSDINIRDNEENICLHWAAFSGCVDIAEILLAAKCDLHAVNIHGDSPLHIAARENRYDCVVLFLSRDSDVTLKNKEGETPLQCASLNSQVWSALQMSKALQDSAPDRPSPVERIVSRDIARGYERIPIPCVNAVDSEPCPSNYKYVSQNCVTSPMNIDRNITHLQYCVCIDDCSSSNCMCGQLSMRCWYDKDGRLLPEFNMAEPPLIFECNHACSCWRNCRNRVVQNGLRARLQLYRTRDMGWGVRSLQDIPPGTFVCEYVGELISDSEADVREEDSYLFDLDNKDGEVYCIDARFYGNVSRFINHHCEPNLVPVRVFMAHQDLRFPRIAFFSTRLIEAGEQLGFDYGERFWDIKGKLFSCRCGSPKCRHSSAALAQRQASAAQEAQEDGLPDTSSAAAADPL
Description: EHMT1 enzyme assay on peptide substrate (EHMT1 PEP). It counts as biochemical. The settings on record: Table III; read-out: EHMT1 PEP (IC50 μM).
On to `COc1cnc(Nc2ccnc3[nH]ccc23)cc1OCCCN1CCCC1` [Compound 335, N-(5-methoxy-4-(3-(pyrrolidin-1-yl)propoxy)pyridine-2-yl)-1H-pyrrolo[2,3-b]pyridin-4-amine], for which the IC50 was 0.1 to 1 µM.

Take `COc1ccc(Nc2ccc3ncc(C)n3n2)cc1OCCCN1CCCC1` [Compound 347]: the half-maximal inhibitory concentration (IC50) was in the range of 1 to 10 µM.

On to `CNc1ccnc(Nc2ccc(OC)c(OCCCN3CC(F)C3)c2)n1` [Compound 354], for which the IC50 is 0.1 to 1 µM.

`CNc1cc(Nc2cc(OCCCN3CCCC3)c(OC)cn2)cnn1` [Compound 323, N^5-(5-methoxy-4-(3-(pyrrolidin-1-yl)propoxy)pyridin-2-yl)-N^3-methylpyridazine-3,5-diamine]: the IC50 was greater than 10 µM.

Turning to `CNc1nc(Nc2ccc(OC)c(OCCCN3CCCC3)c2)nc2c1CCC2` [Compound 328, N^2-(4-methoxy-3-(3-(pyrrolidin-1-yl)propoxy)phenyl)-N^4-methyl-6,7-dihydro-5H-cyclopenta[d]pyrimidine-2,4-diamine], the IC50 was 0.1 to 1 µM.

On to `COc1ccc(Nc2ccnc(NCC3CCN(C(C)=O)CC3)n2)cc1OCCCN1CCCC1` [Compound 340], for which the IC50 was 0.1 to 1 µM.

For `CNc1cc(Nc2cc(OCCCN3CCCC3)c(OC)cn2)nc(C)n1` [Compound 325, N^4-(5-methoxy-4-(3-(pyrrolidin-1-yl)propoxy)pyridin-2-yl)-N^6,2-dimethylpyrimidine-4,6-diamine], the half-inhibitory concentration (IC50) was in the range of 1 to 10 µM.

For the compound `COc1ccc(Nc2cccc3ncnn23)cc1OCCCN1CCCC1` [Compound 344], the IC50 is greater than 10 µM.

Consider `COc1ccc(Nc2nccc(NCC3CCOCC3)n2)cc1OC1CCC2(CC1)CN(C)C2` [Compound 260, N^2-(4-methoxy-3-((2-methyl-2-azaspiro[3.5]nonan-7-yl)oxy)phenyl)-N^4-((tetrahydro-2H-pyran-4-yl)methyl)pyrimidine-2,4-diamine], for which the IC50 is greater than 10 µM.

`COc1ccc(Nc2cccc3cn(C)nc23)cc1OCCCN1CCCC1` [Compound 346]: the IC50 was greater than 10 µM.

As to `COc1ccc(Nc2ccc3cnn(C)c3c2)cc1OCCCN1CCCC1` [Compound 341], the half-maximal inhibitory concentration (IC50) is greater than 10 µM.

Take `COc1ccc(Nc2ccc3nn(C)cc3c2)cc1OCCCN1CCCC1` [Compound 345]: the IC50 was greater than 10 µM.

On to `COc1ccc(Nc2ncc3ncn(C)c3n2)cc1OCCCN1CCCC1` [Compound 343], for which the IC50 was greater than 10 µM.

`COc1ccc(Nc2nccc(NCC3CCOCC3)n2)cc1NCCCN1CCCC1` [Compound 350]: the IC50 is 0.1 to 1 µM.

In the case of `CNc1cc(Nc2cc(OCCCN3CCCC3)c(OC)cn2)ncn1` [Compound 324, N^4-(5-methoxy-4-(3-(pyrrolidin-1-yl)propoxy)pyridin-2-yl)-N^6-methylpyrimidine-4,6-diamine], the IC50 lay within 1 to 10 µM.

As to `COc1ccc(Nc2ccc3ncn(C)c3n2)cc1OCCCN1CCCC1` [Compound 342], the IC50 was greater than 10 µM.

In the case of `CCn1nc(Nc2nccc3[nH]ccc23)cc1COCCN1CCCC1` [Compound 333], the IC50 lay in the range of 1 to 10 µM.

Take `CNCc1cnc(Nc2ccc(OC)c(OCCCN3CCCC3)c2)nc1` [Compound 339]: the IC50 is greater than 10 µM.

On to `CNc1cc(C)nc(Nc2ccc(OC)c(O[C@H]3C[C@H](N(C)C)C3)c2)n1` (single isomer, unassigned) [Compound 329, N^2-(3-((1r,3r)-3-(dimethylamino)cyclobutoxy)-4-methoxyphenyl)-N^4,6-dimethylpyrimidine-2,4-diamine], for which the IC50 was 1 to 10 µM.

As for `COc1ccc(NCCCN2CCCC2)cc1Nc1nccc(NCC2CCOCC2)n1` [Compound 352], the IC50 is greater than 10 µM.

Turning to `CNc1cnnc(Nc2cc(OCCCN3CCCC3)c(OC)cn2)c1` [Compound 322, N^3-(5-methoxy-4-(3-(pyrrolidin-1-yl)propoxy)pyridin-2-yl)-N^5-methylpyridazine-3,5-diamine], the IC50 is less than 0.1 µM.

Consider `COc1cnc(Nc2nc(C)nc3[nH]ccc23)cc1OCCCN1CCCC1` [Compound 326, N-(5-methoxy-4-(3-(pyrrolidin-1-yl)propoxy)pyridin-2-yl)-2-methyl-7H-pyrrolo[2,3-d]pyrimidin-4-amine], for which the half-inhibitory concentration (IC50) was in the range of 0.1 to 1 µM.

In the case of `CNc1cc(C)nc(Nc2ccc(OC)c(OC[C@H]3C[C@H](N(C)C)C3)c2)n1` [Compound 330], the IC50 lay within 1 to 10 µM.

Regarding `CNc1ccnc(Nc2ccc(OC)c(OCCCN3CC[C@@H](F)C3)c2)n1` [Compound 353], the IC50 fell in the range of 0.1 to 1 µM.

On to `COc1ccc(Nc2ccc3cnn(C)c3n2)cc1OCCCN1CCCC1` [Compound 257, N-(4-methoxy-3-(3-(pyrrolidin-1-yl)propoxy)phenyl)-1-methyl-1H-pyrazolo[3,4-b]pyridin-6-amine], for which the 50% inhibitory concentration (IC50) was greater than 10 µM.

Take `COc1ccc(Nc2nccc(-c3cnn(C)c3)n2)cc1OCCCN1CCCC1` [Compound 348]: the IC50 is greater than 10 µM.

The assay is the same for the next values; noted with them: Table VI; read-out: EHMT1 PEP IC50.
Regarding `CNc1cc(C)nc(Nc2cc(OCCCN3CCCC3)c3oncc3c2)n1` [Compound 793], the half-maximal inhibitory concentration (IC50) was greater than 10 µM.

For `CNc1cc(CC2CCOCC2)c2cc(OC)c(OCCCN3CCCC3)cc2n1` [Compound 823], the IC50 is less than 0.1 µM.

In the case of `COc1cc2c(C3CCOCC3)cc(N3CCCCC3)nc2cc1OCCCN1CCCC1` [Compound 824], the IC50 was 0.1 to 1 µM.

Consider `COc1cc2c(C3CCN(C)CC3)cc(C#N)nc2cc1OCCCN1CCCC1` [Compound 790], for which the IC50 is less than 0.1 µM.

Regarding `CNc1cc(C)nc(Nc2ccc(OC)c(C#CC3CCN(C)C3)c2)n1` (centres unmarked) [Compound 847], the IC50 was less than 0.1 µM.

For `COc1cnc(Nc2nccc3nccn23)cc1OC[C@@H]1CCNC1` [Compound 801], the IC50 is greater than 10 µM.

As to `COc1cc(NC2CCOCC2)ncc1OCC1CCNC1` (centres unmarked) [Compound 806], the IC50 is 1 to 10 µM.

For the compound `COc1cc2c(C3CCN([C@@H]4CCOC4)CC3)cc(C)nc2cc1OCCCN1CCCC1` [Compound 863], the half-maximal inhibitory concentration (IC50) was less than 0.1 µM.

`CNc1cc(C)c2cc(OC)c(C#CCN3CCCC3)cc2n1` [Compound 859]: the IC50 is less than 0.1 µM.

Consider `COc1cc2c(C3CCOCC3)cc(N(C)C)nc2cc1OCCCN1CCCC1` [Compound 825], for which the IC50 is 0.1 to 1 µM.

As for `COc1cc2c(C)cc(N3CCCCC3)nc2cc1OCCCN1CCCC1` [Compound 810], the half-inhibitory concentration (IC50) is less than 0.1 µM.

With `CNc1cc(C)nc(Nc2ccc(OC)c(C#CCN3CCN(C)CC3)c2)n1` [Compound 860], the IC50 is greater than 10 µM.

`COc1cnc(Nc2nn(C)c3cnccc23)cc1OCCCN1CCCC1` [Compound 795]: the IC50 is greater than 10 µM.

With `COc1ccc(Nc2nc(C)cc(NC(C)C)n2)cc1OC[C@@H]1CCNC1` [Compound 800], the IC50 is less than 0.1 µM.

Turning to `CNc1cc(C2CCCCC2)c2cc(OC)c(OCCCN3CCCC3)cc2n1` [Compound 816], the concentration for half-maximal inhibition (IC50) was less than 0.1 µM.

On to `CNc1cc(C2CCN(C(C)=O)CC2)c2cc(OC)c(OCCCN3CCCC3)cc2n1` [Compound 809], for which the IC50 is less than 0.1 µM.

As to `COc1cc(N(C)C2CCOCC2)ncc1OCC1CCNC1` (centres unmarked) [Compound 808], the IC50 was in the range of 1 to 10 µM.

Turning to `CNc1cc(C)nc(Nc2cnc(OC)c(OC[C@@H]3CCN(C4CCC4)C3)c2)n1` [Compound 798], the IC50 is less than 0.1 µM.

As for `CNc1cc(C(C)C)c2cc(OC)c(OCCCN3CCCC3)cc2n1` [Compound 817], the IC50 is less than 0.1 µM.

In the case of `CNc1cc(C2CCOCC2)c2cc(OC)c(OC[C@@H]3CCN(C)C3)cc2n1` [Compound 803], the IC50 is less than 0.1 µM.

In the case of `CNc1cc(C2CCN(CCOC)CC2)c2cc(OC)c(OCCCN3CCCC3)cc2n1` [Compound 839], the IC50 is less than 0.1 µM.

For the compound `COc1ccc(Nc2cc(C)n(C)n2)cc1OCCCN1CCCC1` [Compound 797], the IC50 was greater than 10 µM.

As for `CNc1cc(C2CCN(CCC(F)(F)F)CC2)c2cc(OC)c(OCCCN3CCCC3)cc2n1` [Compound 832], the 50% inhibitory concentration (IC50) was less than 0.1 µM.

On to `CNC(=O)c1cc(C)nc(Nc2ccc(OC)c(OCCCN3CCCC3)c2)n1` [Compound 854], for which the IC50 is greater than 10 µM.

For the compound `CNc1cc(C)nc(Nc2cc(OCCCN3CCCC3)c3nc(C)cn3c2)n1` [Compound 616], the half-maximal inhibitory concentration (IC50) fell in the range of 0.1 to 1 µM.

As for `COc1ccc(Nc2cc(C)[nH]n2)cc1OCCCN1CCCC1` [Compound 796], the IC50 is greater than 10 µM.

In the case of `CNc1cc(C)nc(Nc2ccc(OC)c(CN[C@H]3CCNC3)c2)n1` [Compound 813], the 50% inhibitory concentration (IC50) was in the range of 0.1 to 1 µM.

One may read the IC50 as the concentration at which inhibition is half-maximal.

(Values after patent US20210198277A1, “AMINE-SUBSTITUTED ARYL OR HETEROARYL COMPOUNDS” (Epizyme, Inc., priority 2016, published 2021).)
